Here are results for three compounds from patent publication US10238649B2 (AB SCIENCE, priority 2012, dated 2019).

For experiment [1], the system named is patients with advanced/metastatic pancreatic cancer. The experiment in a line: Ancillary pharmacogenomic study of AB07012, overall survival by gene expression predictor factors. Conditions: full cohort with genomic information (n=119). Type of experiment: in vivo, human.
The target in experiment [2] is discoidin domain receptor family member 1 (DDR1) kinase (Homo sapiens, UniProt Q08345). Conditions: cited from earlier work.
In experiment [3] the test system is human cord blood mast cells. The settings on record: cited from earlier work.
Experiment [4] deals with Ba/F3 cells expressing human or mouse wild-type c-Kit. Conditions: read-out: IC50, stem cell factor-induced proliferation and c-Kit tyrosine phosphorylation; cited from earlier work.
The subject of experiment [5] is Ba/F3 cells expressing PDGFR-α. The settings on record: read-out: 1050, PDGF-BB-stimulated proliferation and PDGFR-α tyrosine phosphorylation; cited from earlier work.
The subject of experiment [6] is patients with metastatic pancreatic cancer. Conditions: first-line, Conroy et al. 2011; cited from earlier work.
In experiment [7] the test system is patients with locally advanced, unresectable, or metastatic pancreatic adenocarcinoma. The settings on record: single agent, randomized trials; cited from earlier work.
The test system of experiment [8] is patients with unresectable pancreatic cancer. Conditions: Moore et al. 2007; cited from earlier work.

Sequence of discoidin domain receptor family member 1 (DDR1) kinase (Q08345 19-913, species assumed): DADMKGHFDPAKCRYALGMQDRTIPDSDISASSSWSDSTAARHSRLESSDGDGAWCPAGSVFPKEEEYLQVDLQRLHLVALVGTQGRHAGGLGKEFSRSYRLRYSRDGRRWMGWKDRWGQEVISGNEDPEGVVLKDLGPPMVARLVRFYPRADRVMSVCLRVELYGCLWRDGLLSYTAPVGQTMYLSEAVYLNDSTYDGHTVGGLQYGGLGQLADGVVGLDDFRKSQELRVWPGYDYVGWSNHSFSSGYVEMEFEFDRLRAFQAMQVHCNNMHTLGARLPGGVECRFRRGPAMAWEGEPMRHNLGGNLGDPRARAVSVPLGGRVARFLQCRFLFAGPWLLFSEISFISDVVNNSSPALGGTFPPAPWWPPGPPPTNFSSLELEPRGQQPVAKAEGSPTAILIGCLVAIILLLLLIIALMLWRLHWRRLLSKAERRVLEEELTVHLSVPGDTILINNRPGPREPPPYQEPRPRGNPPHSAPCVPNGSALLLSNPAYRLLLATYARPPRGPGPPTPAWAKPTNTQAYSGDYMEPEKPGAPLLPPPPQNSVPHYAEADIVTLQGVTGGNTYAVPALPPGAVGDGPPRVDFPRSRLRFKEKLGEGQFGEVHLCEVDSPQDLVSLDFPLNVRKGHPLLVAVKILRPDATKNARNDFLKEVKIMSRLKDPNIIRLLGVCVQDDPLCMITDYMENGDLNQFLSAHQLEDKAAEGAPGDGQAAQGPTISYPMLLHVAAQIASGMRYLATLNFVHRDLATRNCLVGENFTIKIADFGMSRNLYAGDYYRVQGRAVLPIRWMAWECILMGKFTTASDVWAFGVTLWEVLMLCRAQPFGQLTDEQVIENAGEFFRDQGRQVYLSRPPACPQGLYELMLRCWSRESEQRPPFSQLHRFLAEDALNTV

On to `Cc1ccc(NC(=O)c2ccc(CN3CCN(C)CC3)cc2)cc1Nc1nc(-c2cccnc2)cs1` [masitinib, 4-(4-methylpiperazin-1-ylmethyl)-N-[4-methyl-3-(4-pyridin-3ylthiazol-2-ylamino)phenyl]benzamide], for which, in experiment [1], the “median OS” value was 7.7 months. In addition, in experiment [2], the “inhibition of DDR1 autophosphorylation” value is given as “pronounced inhibition”. In experiment [3], the “FcεRI-mediated degranulation of human cord blood mast cells” value is reported as “inhibition”. In addition, the IC50 in experiment [4] was 150 ± 80 nM; in experiment [5], 300 ± 5 nM.
For the compound `Nc1ccn(C2OC(CO)C(O)C2(F)F)c(=O)n1` (stereo not shown) [gemcitabine, 4-amino-1-[3,3-difluoro-4-hydroxy-5-(hydroxymethyl)tetrahydrofuran-2-yl]-1H-pyrimidin-2-one], in experiment [6], the objective response rate is reported as 9.4% and the “survival (months lived)” value is 6.8 months. Further, in experiment [7], the 12-month survival entry is reported as “approximately 20%” and the median survival entry was “approximately 6 months”. Besides, in experiment [8], the 1-year survival rate is 17% and the “median OS” value is 5.91 months.
Take Folfirinox: in experiment [6], the objective response rate is reported as 31.6% and the “survival (months lived)” value is recorded as 11.1 months.
